# According to patent US8389739B1, “Modulators of retinoid-related orphan receptor gamma” (Orphagen Pharmaceuticals, priority 2006, dated 2013):
# Columns and labels:
# [1] = biological target: T1, RORβ (human RORβ) (Homo sapiens, UniProt Q92753); assay: Transcriptional assay of RORβ as GAL4 hybrid; assay type: cell-based; conditions: same format as the GAL4-RORγ assay
# T1 construct: human RORβ (NR1F2, aa 201-459); expressed in transfected cells; host or cells: CHO cells, transient transfection
# T1 sequence (Q92753 212-470): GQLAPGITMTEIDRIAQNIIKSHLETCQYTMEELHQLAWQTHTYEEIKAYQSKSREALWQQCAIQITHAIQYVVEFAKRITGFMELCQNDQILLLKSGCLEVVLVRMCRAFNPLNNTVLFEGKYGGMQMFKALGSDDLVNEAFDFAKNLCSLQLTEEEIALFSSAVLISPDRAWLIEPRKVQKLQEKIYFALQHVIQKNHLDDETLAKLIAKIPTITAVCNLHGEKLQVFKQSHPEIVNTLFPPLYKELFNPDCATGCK
# Protocol: This example also describes several additional tests that were commonly performed to confirm the authenticity of a hit to RORγ. These tests also verified the validity of the transcriptional and biochemical assays used. […] In some cases, close analogs of a confirmed hit were obtained by synthesis or purchase from a commercial source. The series of compounds related to the confirmed hit was then tested in the biochemical and transcriptional assays. The rank order of the potency of the compounds was then compared. […] The data imply in turn that the compounds are binding to the same binding pocket. […]
# Four hours after transfection, cells were dislodged with trypsin and seeded into a 384-well plate at 8,000 cells/well using a Titertek Multidrop 384. […] After incubation for 2 hours at 37 degrees centigrade, the conversion of resazurin to resorufin was measured by fluorescence (excitation at 570 nm and emission at 615 nm). […] Percent viability was determined as 2 hour fluorescence, minus background at t=0 hours, normalized to DMSO controls. […] Luminescence is detected with a Victor 2-V plate reader (Perkin-Elmer) and normalized to luciferase activity of DMSO control wells alone.
# [2] = system: IL-17 release and TH-17 cells in lymph node cultures; assay: Lymph node cell cultures from PLP-immunized SJL/J mice, IL-17 ELISA and Th-17 FACS; assay type: cell-based
# Protocol: FIGS. 13A-F. IL-17 levels in lymph node cells from mice immunized with myelin-derived peptides respond to cognate peptide antigens, IL-23 and RORγ ligands. (FIG. 13A) SJL/J mice were immunized by complete Freund's adjuvant (CFA) only or by Proteolipid Protein residues 139-151 (PLP139-151) emulsified in CFA. Lymph nodes were cultured for 3 days in with or without 40 μg/ml PLP in the presence or absence of OR-885. Culture media were analyzed by ELISA for IL-17. (FIGS. 13B-C) Lymph node cells from PLP-immunized SJL/J mice were cultured as before with the addition of 10 ng/ml IL-23 and 3 μM compounds. At the end of 1 day or 3 days in culture, Th-17 (CD4^+CD8^−IL17^+) cell frequency was measured by FACS (FIG. 13B) and compared to IL-17 levels in culture media (FIG. 13C). (FIGS. 13D-F) Lymph node cells from MOG35-55 immunized C57BL/6 mice were cultured for 3 days with 30 μg/ml MOG and/or 10 ng/ml IL-23. RORγ ligands were not added (FIG. 13D), or added at the beginning of the culture at a single concentration (FIG. 13E, 1 μM) or in multiple doses (FIG. 13F).
# FIG. 14. Inhibition of IL-17 release in mouse lymph node cultures by the RORγ antagonist OR-885 can be reversed by the RORγ agonist OR-12872. The lymph node cells were culture in the presence of 10 ng/mL IL-23 and 40 μg/mL PLP for three days under identical conditions to FIG. 13 and IL-17 in the culture supernatant was measured by ELISA.
# ELISA kits for mouse IL-17 and human IL-17 were from eBioscience (San Diego, Calif.). ELISA assays were performed following the manufacturer's protocol. Certain samples were diluted 20-fold to avoid maximization of enzymatic signals. For mouse IL-22 ELISA, antibodies and standards were from Antigenix America (Huntington Station, N.Y.) and accessory components were from eBioscience. The IL-22 assay protocol was similar to that of the IL-17 assays. […]
compound,measurement,setting,value
"O=S(=O)(c1ccccc1)N(CC(F)(F)F)c1ccc(C(O)(C(F)(F)F)C(F)(F)F)cc1 [Compound T0901317, N-(2,2,2-Trifluoro-ethyl)-N-[4-(2,2,2-trifluoro-1-hydroxy-1-trifluoromethyl-ethyl)-phenyl]-benzenesulfonamide, reference compound]",effect on the transcription of RORβ,[1],no effects
"C[C@@H]1CC[C@@]2(OC1)O[C@H]1C[C@H]3[C@@H]4CC[C@H]5C[C@@H](O)CC[C@]5(C)[C@H]4C[C@@H](O)[C@]3(C)[C@H]1[C@@H]2C [OR-885, 5α,20α, 22α, 25D-SPIROSTAN-3β, 12β-DIOL]",induction of TH-17 cells (as a percentage of total live cells),"[2]; PLP, 10 ng/ml IL-23, 3 μM compounds (FIG. 13B)",block
same,PLP-stimulated release of IL-17,"[2]; lymph node cultures, 40 μg/ml PLP, 3 days",inhibited
"CCN(c1ccc(C(O)(C(F)(F)F)C(F)(F)F)cc1)S(=O)(=O)c1ccc([N+](=O)[O-])cc1 [OR-1050, N-Ethyl-4-nitro-N-[4-(2,2,2-trifluoro-1-hydroxy-1-trifluoromethyl-ethyl)-phenyl]-benzenesulfonamide]",effect on the transcription of RORβ,[1],no effects
"COC(C)CCC(C)C1CCC2C3CC(O)C4CC(O)CCC4(C)C3CCC12C (centres unmarked) [OR-12872, 17-(4-Methoxy-1-methyl-pentyl)-10,13-dimethyl-hexadecahydro-cyclopenta[a]phenanthrene-3,6-diol]",reversal of antagonist suppression of IL-17 release,"[2]; 10 ng/mL IL-23 and 40 μg/mL PLP, three days (FIG. 14)",reverses the suppressive effects of OR-885 on IL-17 release
